Series [1] concerns lung adenocarcinoma cell line H441. Put plainly: Cell proliferation (hexosaminidase assay) in lung adenocarcinoma H441 cells, Example 1. The series is classed as cell-based, human. The protocol: Cell Proliferation Studies: In order to assess the anti-proliferative activity of the synthesized compounds, an in vitro cell culture system of lung adenocarcinoma cell line H441 was used. The cell detachment and anti-proliferative activity was measured as a decrease in hexosaminidase enzyme activity associated with remainder of the adhered cells. [Landegren, 1984] […] The concentration versus cell proliferation plots were analyzed by an exponential fit (Table 1). The results were compared with the anti-proliferative activity of compound 1.
Cell Culture and drug treatment: Human lung adenocarcinoma cell line NCI-H441 (ATCC Number: HTB-174) was obtained from the American Type Culture Collection (Manassas, Va.). H441 cells were maintained at 37° C. with 5% CO2 in McCoy's 5A Medium (Invitrogen, Carlsbad, Calif.) supplemented with 5% heat-inactivated fetal bovine serum (FBS). All media contained gentamicin at 50 μg/ml (GIBCO Laboratories, Grand Island, N.Y.). Other cells lines (PANC-1, MiaPaCa-2 and PC-3) were also similarly maintained, except that the cell culture medium was RPMI 1640 instead of McCoy's.
To evaluate the anti-proliferative activity of synthesized bis(2-fluorobenzylidene)-4-piperidone and its derivatives, the cells were seeded in 96-well flat-bottom tissue culture plates at a density of 10×10^3 cells per well. The cells were allowed to attach and grow overnight. The test compounds were solubilized in dimethyl sulfoxide (DMSO), filtered through 0.2 μm nylon filter and added to cells at 1, 10, 25 and 100 μM concentrations in culture medium supplemented with 5% FBS. The DMSO concentration was maintained at 0.1% per well. Control wells received equivalent volume of DMSO without any test compounds. The cells were allowed to remain in the treatment medium for 24, 48 and 72 hours.
Cell Proliferation: The total number of cells after the treatment period was estimated by the hexosaminidase assay. [Landegren, 1984] Briefly, the medium was removed and hexosaminidase substrate solution in citrate buffer pH 5 (7.5 mM), […] (Calbiochem, San Diego, Calif.) was added at 60 μl per well. The plate was incubated at 37° C. in 100% humidity for 30 minutes, before stopping the reaction with 90 μl of 50 mM glycine containing 5 mM of EDTA (pH 10.4). The absorbance was measured at 405 nm. The experiments were conducted in triplicate, and repeated at least twice. The data were analyzed as percent of control, where the control wells were treated with equivalent amounts of DMSO alone, and the analyzed data was presented as average±standard error of mean. The differences among mean values were deemed significant at p<0.05.
For IC50 calculations, a plot between the drug concentration and hexosaminidase activity was generated and the data was fitted either linearly or exponentially. The best fit was used for further processing of data.

The mark [2] stands for this setting: Homo sapiens, NCI-H441, 24 h of treatment, 1-100 μM tested, fitted plot, read-out: IC50 value.
The mark [3] stands for this setting: Homo sapiens, NCI-H441, 24 h of treatment, read-out: IC50 (grouping relative to compound 1).
[4] abbreviates: 24 h of treatment, 1-100 μM tested, fitted plot, read-out: IC50 value.

Each structure is given as a SMILES string. pIC50: −log10 of the molar value. Like-named read-outs stand apart in the source and are kept apart here. Some results are limits rather than exact numbers.

A word on the pIC50: it is the negative decadic logarithm of the IC50, by convention in mol/L. Turning to `O=C1C(=Cc2ccccc2Cl)CNCC1=Cc1ccccc1Cl` [Compound 3, 3,5-Bis(2-chlorobenzylidene)-4-piperidone], the “anti-proliferative activity in words, relative to the comparator named” value in series [1] is listed as “more anti-proliferative than the 2-fluoro substituted compound 1”. For the same molecule, the negative logarithm of the IC50 (pIC50) in series [1] (setting [2]) was 5.30; in series [1] (setting [3]) it was greater than 4.52.
`CCCCCCCCCCC=CC(CC(=O)O)C(=O)N1CC(=Cc2ccccc2F)C(=O)C(=Cc2ccccc2F)C1` (stereo not shown) [Compound 26, 3-[3,5-Bis-(2-fluorobenzylidene)-4-oxo-piperidine-1-carbonyl]-pentadec-4-enoic acid]: the “anti-proliferative activity in words, relative to the comparator named” value in series [1] is given as “acceptable anti-proliferative activity”. Moreover, the pIC50 in series [1] (setting [2]) was 4.24; in series [1] (setting [3]), less than 4.30.
Broadly, the melting point is the temperature of the solid-liquid transition. As for `Cc1ccc(S(=O)(=O)N2CC(=Cc3ccccc3F)C(=O)C(=Cc3ccccc3F)C2)cc1` [Compound 20, N-(4-Methylbenzenesulfonyl)-3,5-bis(2-fluorobenzylidene)-4-piperidone], the melting point is 162 to 163 °C. In series [1] (setting [2]), the pIC50 was 4.30. Further, in series [1] (setting [3]), the pIC50 was less than 4.30.
As to `O=C1C(=Cc2ccc(Cl)cc2)CNCC1=Cc1ccc(Cl)cc1` [Compound 8, 3,5-Bis(4-chlorobenzylidene)-4-piperidone], the “anti-proliferative activity in words, relative to the comparator named” value in series [1] is given as “no change in the anti-proliferative activity of 8 compared to that of 7”. Also, the pIC50 is 4.06 in series [1] (setting [2]) and less than 4.30 in series [1] (setting [3]).
Take `O=C1C(=Cc2ccccc2F)CN(C(=O)c2ccccc2C(=O)O)CC1=Cc1ccccc1F` [Compound 16, 2-[3,5-Bis-(2-fluorobenzylidene)-4-oxo-piperidine-1-carbonyl]-benzoic acid]: the “anti-proliferative activity in words, relative to the comparator named” value in series [1] is listed as “very potent analog”. In addition, the pIC50 in series [1] (setting [2]) was 4.25; in series [1] (setting [3]), less than 4.30.
Turning to `CN(C)c1ccc(C=C2CNCC(=Cc3ccc(N(C)C)cc3)C2=O)cc1` [Compound 9, 3,5-Bis[4-(N,N-dimethylaminoenzylidene)]-4-piperidone], the pIC50 in series [1] (setting [4]) was 4.00.
In the case of `O=C(O)CCCC(=O)N1CC(=Cc2ccccc2F)C(=O)C(=Cc2ccccc2F)C1` [Compound 15, 5-[3,5-Bis-(2-fluorobenzylidene)-4-oxo-piperidin-1-yl]-5-oxo-pentanoic acid], the melting point was in the range of 167 to 168 °C. In addition, the pIC50 in series [1] (setting [2]) was 4.22. Also, the pIC50 in series [1] (setting [3]) was less than 4.30.
Turning to `O=C1C(Cc2ccccc2F)CNCC1Cc1ccccc1F` (stereo not shown) [Compound 11, 3,5-Bis(2-fluorobenzyl)-4-piperidone], the “anti-proliferative activity in words, relative to the comparator named” value in series [1] is “significantly less anti-proliferative activity as compared to compound 1”. Also, the pIC50 in series [1] (setting [2]) is 3.89; in series [1] (setting [3]), less than 4.30.
`CCCCCCCCCCCCC=CC(CC(=O)O)C(=O)N1CC(=Cc2ccccc2F)C(=O)C(=Cc2ccccc2F)C1` (stereo not shown) [Compound 27, 3-[3,5-Bis-(2-fluorobenzylidene)-4-oxo-piperidine-1-carbonyl]-heptadec-4-enoic acid]: the “anti-proliferative activity in words, relative to the comparator named” value in series [1] is “acceptable anti-proliferative activity”. Besides, the pIC50 in series [1] (setting [2]) was 4.33.
Take `CCCCCCCCCCCCCCCCNC(=O)CCC(=O)N1CC(=Cc2ccccc2F)C(=O)C(=Cc2ccccc2F)C1` [Compound 24, 4-[3,5-Bis-(2-fluorobenzylidene)-4-oxo-piperidin-1-yl]-N-hexadecyl-4-oxo-butyramide]: the “anti-proliferative activity in words, relative to the comparator named” value in series [1] was “loss of anti-proliferative activity”. Further, the figures for the pIC50 in series [1] (setting [2]) and in series [1] (setting [3]) were 4.19 and less than 4.30, respectively.
Regarding `O=C(O)C=CC(=O)N1CC(=Cc2ccccc2F)C(=O)C(=Cc2ccccc2F)C1` [Compound 13, 4-[3,5-Bis-(2-fluorobenzylidene)-4-oxo-piperidin-1-yl]-4-oxo-2-butenoic acid], in series [1], the “anti-proliferative activity in words, relative to the comparator named” value is “significant enhancement in potency”. For the same molecule, the values for the negative logarithm of the IC50 (pIC50) in series [1] (setting [2]) and in series [1] (setting [3]) were 4.54 and greater than 4.52, respectively.
In the case of `CC(=O)N1CC(=Cc2ccccc2F)C(=O)C(=Cc2ccccc2F)C1` [Compound 19, N-Acetyl-3,5-bis(2-fluorobenzylidene)-4-piperidone], in series [1], the “anti-proliferative activity in words, relative to the comparator named” value was “performed slightly better than compound 1”. The figures for the negative logarithm of the IC50 (pIC50) in series [1] (setting [2]) and in series [1] (setting [3]) were 4.27 and less than 4.30, respectively.
For the molecule `O=C(O)COCC(=O)N1CC(=Cc2ccccc2F)C(=O)C(=Cc2ccccc2F)C1` [Compound 14, 2-[3,5-Bis-(2-fluorobenzylidene)-4-oxo-piperidin-1-yl]-2-oxo-ethoxyacetic acid], in series [1], the “anti-proliferative activity in words, relative to the comparator named” value was “less potent as compared to compound 15”. Further, the pIC50 in series [1] (setting [2]) was 3.51; in series [1] (setting [3]) it was less than 4.30.
On to `O=C1C(=Cc2ccccc2F)CN(C(=O)C2CCCCC2C(=O)O)CC1=Cc1ccccc1F` (stereo not shown) [Compound 17, 2-[3,5-Bis-(2-fluorobenzylidene)-4-oxo-piperidine-1-carbonyl]-cyclohexanecarboxylic acid], for which the melting point fell in the range of 96 to 98 °C. Moreover, the pIC50 in series [1] (setting [2]) is 4.26. Further, the pIC50 in series [1] (setting [3]) is less than 4.30.
Regarding `CCCCCCCCCCCCCCCCC=CC(CC(=O)O)C(=O)N1CC(=Cc2ccccc2F)C(=O)C(=Cc2ccccc2F)C1` (stereo not shown) [Compound 28, 3-[3,5-Bis-(2-fluorobenzylidene)-4-oxo-piperidine-1-carbonyl]-heneicos-4-enoic acid], the “anti-proliferative activity in words, relative to the comparator named” value in series [1] is “total loss of activity”. Further, the pIC50 was 4.08 in series [1] (setting [2]) and less than 4.30 in series [1] (setting [3]).
Consider `O=C1C(=Cc2ccccc2)CNCC1=Cc1ccccc1` [Compound 2, 3,5-Bis(benzylidene)-4-piperidone], for which the figures for the negative-log IC50 (pIC50) in series [1] (setting [2]) and in series [1] (setting [3]) were 4.92 and greater than 4.52, respectively.
Consider `O=C1C(=Cc2cccc(Cl)c2)CNCC1=Cc1cccc(Cl)c1` [Compound 6, 3,5-Bis(3-chlorobenzylidene)-4-piperidone], for which the “anti-proliferative activity in words, relative to the comparator named” value in series [1] is “little change in IC50 as compared to that of compound 1”. Besides, in series [1] (setting [2]), the pIC50 was 4.30.
Take `O=C1C(=Cc2ccccc2[N+](=O)[O-])CNCC1=Cc1ccccc1[N+](=O)[O-]` [Compound 5, 3,5-Bis(2-nitrobenzylidene)-4-piperidone]: in series [1], the “anti-proliferative activity in words, relative to the comparator named” value is “the activity remained more or less the same”. The pIC50 in series [1] (setting [2]) is 4.03; in series [1] (setting [3]) it was less than 4.30.
As to `O=C(CN1CC(=Cc2ccccc2F)C(=O)C(=Cc2ccccc2F)C1)NCc1ccc(F)cc1` [Compound 23, 2-[3,5-Bis(2-fluorobenzylidene-4-piperidone-1-yl)-N-(4-fluorobenzyl)acetamide]], the pIC50 in series [1] (setting [4]) is 4.34.
As to `OC1C(=Cc2ccccc2F)CNCC1=Cc1ccccc1F` (stereo not shown) [Compound 10, 3,5-Bis(2-fluorobenzylidene)-4-hydroxy-piperidine], the “anti-proliferative activity in words, relative to the comparator named” value in series [1] is “significantly less anti-proliferative activity as compared to compound 1”. Further, the pIC50 in series [1] (setting [2]) was 3.91; in series [1] (setting [3]) it was less than 4.30.
As to `O=C1C(=Cc2ccc(F)cc2)CNCC1=Cc1ccc(F)cc1` [Compound 7, 3,5-Bis(4-fluorobenzylidene)-4-piperidone], the pIC50 in series [1] (setting [2]) is 4.34.
Turning to `O=C1C(=Cc2ccccc2Br)CNCC1=Cc1ccccc1Br` [Compound 4, 3,5-Bis(2-bromobenzylidene)-4-piperidone], the pIC50 was 5.22 in series [1] (setting [2]) and greater than 4.52 in series [1] (setting [3]).
In the case of `O=C(CCC(=O)N1CC(=Cc2ccccc2F)C(=O)C(=Cc2ccccc2F)C1)N[C@H]1C(O)O[C@H](CO)[C@@H](O)[C@@H]1O` (stereo partly shown) [Compound 22, 4-Oxo-4-[3,5-bis(2-fluorobenzylidene-4-piperidonylcarbonyl)-2-glucosepropanamide]], the “anti-proliferative activity in words, relative to the comparator named” value in series [1] is listed as “reduced anti-proliferative activity”. Further, the pIC50 in series [1] (setting [4]) is 4.10.
For `O=C(O)CCC(=O)N1CC(=Cc2ccccc2F)C(=O)C(=Cc2ccccc2F)C1` [Compound 12], in series [1] (setting [4]), the pIC50 was 4.16.
As for `O=CN1CC(=Cc2ccccc2F)C(=O)C(=Cc2ccccc2F)C1` [Compound 18, N-Formyl-3,5-bis(2-fluorobenzylidene)-4-piperidone], in series [1], the “anti-proliferative activity in words, relative to the comparator named” value was “performed slightly better than compound 1”. Also, the pIC50 in series [1] (setting [2]) was 4.31.

For the origin of these results see US9359196B2, “Antiproliferative compositions comprising curcumin analogs and methods of producing and using same” (The Board of Regents of the University of Oklahoma, priority 2009, dated 2016).
